In ChEMBL document CHEMBL3638530, “Viral polymerase inhibitors” (2013):

Target: Genome polyprotein (Hepatitis C virus genotype 3a (isolate NZL1) (HCV), UniProt Q81258)
Experiment: Inhibition Assay: HCV polymerase inhibition assay: HCV polymerase reactions were carried out using a modified mothod of Howe et al., Antimicrobial Agents and Chemotherapy 2004 48(12): 4813-4821.

Sequence of Genome polyprotein (Q81258 2431-3021 limits assumed): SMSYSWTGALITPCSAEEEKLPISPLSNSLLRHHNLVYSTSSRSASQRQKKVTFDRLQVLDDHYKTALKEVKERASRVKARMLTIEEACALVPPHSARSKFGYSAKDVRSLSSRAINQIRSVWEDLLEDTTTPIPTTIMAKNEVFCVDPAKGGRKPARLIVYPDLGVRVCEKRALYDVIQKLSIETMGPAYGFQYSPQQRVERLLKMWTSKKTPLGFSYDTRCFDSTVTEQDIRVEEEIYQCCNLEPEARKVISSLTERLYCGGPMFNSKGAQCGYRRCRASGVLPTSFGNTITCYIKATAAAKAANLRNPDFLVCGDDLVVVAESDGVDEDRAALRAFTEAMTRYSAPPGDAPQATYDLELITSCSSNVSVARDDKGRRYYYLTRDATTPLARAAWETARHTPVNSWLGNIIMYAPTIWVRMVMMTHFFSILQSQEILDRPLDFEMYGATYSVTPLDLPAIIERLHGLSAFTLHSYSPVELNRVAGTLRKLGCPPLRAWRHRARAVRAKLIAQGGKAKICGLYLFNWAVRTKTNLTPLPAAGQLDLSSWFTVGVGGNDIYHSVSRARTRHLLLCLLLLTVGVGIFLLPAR

`CNC(=O)c1c2cc(C3CC3)c(N(CCCNC(=O)c3ncoc3C)S(C)(=O)=O)cc2nn1-c1ccc(Br)cc1` was tested, and the IC50 was 30 nM.
